Source: patent US10935552B2, “Aie luminogens for visualization and treatment of cancer” (THE HONG KONG UNIVERSITY OF SCIENCE AND TECHNOLOGY, priority 2015, dated 2021)

Key:
HeLa cells [1] = assay: Cancer cell imaging for HeLa cells (TTE, TFE, fl-TFE); format: cell-based, human; conditions: 10 μM; TTE in HeLa and A549, TFE and fl-TFE only in HeLa
Procedure: Cell Culture. HeLa cells were cultured in MEM containing 10% FBS and 1% antibiotics (100 units/mL penicillin and 100 µg/mL streptomycin) in a 5% CO2 humidity incubator at 37° C. Cell Imaging. Lung cancer cell A549 were cultured in DMEM containing 10% FBS and antibiotics (100 units/mL penicillin and 100 µg/mL streptomycin) in a 5% CO2 humidity incubator at 37° C. Two different kind of cells were grown overnight on a 35 mm petri dish with a cover slip. The live cells were incubated with 10 μM of TTE for 15/30 mins, TFE for 30′ and fl-TFE for 30′ and 5 h (the last two have been tested only in HeLa cells). In a typical experiment, 2 μL of a 10 mM stock solution of TTE in DMSO were diluted to 1 mL with cell culture medium, followed by further dilution to desired concentration. The cells were imaged under a fluorescent microscope (BX41 Microscope) using same excitation and emission filters: excitation filter=330-385 nm, dichroic mirror=420 nm, and emission filter=400 nm long pass.
The HeLa cells were grown overnight on a 35 mm petri dish with a cover slip. The live cells were incubated with 10 μM of TTE for 30 mins, which are shown in FIG. 17A-B. The HeLa cells were incubated with 50 μM oleic acid for 6 hrs and then were co-stained by 10 μM TTE and 1 μg/mL for 15 mins.

HeLa cells [2] = assay: Cell imaging under fluorescent microscope, HeLa cells; format: cell-based, human; conditions: Hela, 200 nM DPA-IQ, 10 min
Procedure: Cell culture: HeLa cells were cultured in the MEM containing 10% FBS and 1% antibiotics (100 units/mL penicillin and 100 µg/mL streptomycin) in a 5% CO2 humidity incubator at 37° C. COS-7, MDA-MB-231, MCF-7, and MDCK-II cells were culture in the DMEM containing 10% FBS and antibiotics (100 units/mL penicillin and 100 µg/mL streptomycin) in a 5% CO2 humidity incubator at 37° C.
Cell imaging: two different kind of cells were grown overnight on a 35 mm petri dish with a cover slip. The live cells were incubated with 200 nM of TPE-IQ-2O for 1, 5, 10, and 20 mins. In a typical experiment, 2 μL of a 10 mM stock solution of TPE-IQ-2O in DMSO was diluted to 2 mL with cell culture medium, followed by further dilution to desired concentration. The cells were imaged under a fluorescent microscope (BX41 Microscope) using the same excitation and emission filters: excitation filter=400-440 nm, dichroic mirror=455 nm, and emission filter=465 nm long pass.
Two different kinds of cells were grown overnight on a 35 mm petri dish with a cover slip. The live cells were incubated with 200 nM of TPE-IQ-20 for 20, 10, 5, and 1 mins. The Hela cells were stained by TPE-IQ-2O; the COS-7 cells were stained by TPE-IQ-2O; the Hela cells and COS-7 cells were co-cultured and stained together by TPE-IQ-2O. Condition: 200 nM (Filter: both close; Channel 5; EX: 400-440 nm; Exposure time: bright field: 1000 ms Fluorescence: 1000 ms.
Two different kinds of cells were grown overnight on a 35 mm petri dish with a cover slip. The live cells were incubated with 200 nM of TPE-IQ-2O for 10 mins. The Hela cells were stained by TPE-IQ-2O; the MDCKII cells were stained by TPE-IQ-2O; the MDA-MB-231 cells and COS-7 cells were co-cultured and stained together by TPE-IQ-2O. Condition: 200 nM 10 mins (Filter: both close; Channel 5; EX: 400-440 nm; Exposure time: bright field: 1000 ms Fluorescence: 1000 ms.
(§1) HepG2 cells (human hepatocarcinoma cell line), PC-9 cells (human lung adenocarcinoma cell line), Hela cells (human cervical carcinoma cell line), and LX2 cells (normal cell, human hepatic stellate cell line) were stained with 200 nM DPA-IQ for 10 min. Images were taken under the same equipment settings. Scale bar: 30 μm. Excitation wavelength: 400-440 nm.

HepG2 cells = assay: Cell imaging, HepG2 cells; format: cell-based, human; conditions: HepG2, 200 nM DPA-IQ, 10 min
Procedure: (§2) The PC-9, HepG2, and HCC827 cells were grown overnight on a 35 mm petri dish with a cover slip. The live cells were incubated with 200 nM of TPE-IQ-2O for 20 and 10 mins. In all the experiments, the cancer cells are fluorescent in solely staining.
as §1

HeLa cells [3] = assay: MTT cell viability assay, HeLa cells; format: cell-based, human; conditions: HeLa, different concentrations, 24 hrs
Procedure: Hela cells were incubated with different concentrations of Naph-IQ in culture medium for 24 hours.
Before employing AIE-LysoY as a fluorescent visualizer of lysosome, a 3-(4,5-dimethyl-2-thiazolyl)-2,5-diphenyltetrazolium bromide (MTT) cell proliferation assay was first conducted to evaluate its cytotoxicity. […] The good biocompatibility of AIE-LysoY enables its application as a fluorescent tracer to follow the autophagic process of lysosome.

PC-9 cells = assay: Cell imaging, PC-9 cells; format: cell-based, human; conditions: PC-9, 200 nM DPA-IQ, 10 min
Procedure: as §2, §1

mitochondria = assay: Co-staining with commercial organelle trackers in HeLa cells (mitochondria staining); format: cell-based, human
Procedure: The HeLa cells were grown overnight on a 35 mm petri dish with a cover slip. Then the HeLa cells were stained with 200 nM TPE-IQ-2O and Mito-tracker red (50 nM)/Lyso-tracker red (50 nM)/DAPI (500 nM) for 20 mins.
The DMSO solution of DPA-IQ was almost non-emissive while the aggregation state powder of this material emits strong green luminescence upon the UV excitation.
The commercially available MitoTracker Red FM is co-stained as a control together with Naph-IQ.

LX2 cells = assay: Cell imaging, LX2 normal cells; format: cell-based, human; conditions: LX2, 200 nM DPA-IQ, 10 min
Procedure: The LX2 cells were grown overnight on a 35 mm petri dish with a cover slip. The live cells were incubated with 200 nM of TPE-IQ-2O for 20 and 10 mins.
as §1

lysosome = assay: Lysosome imaging in HeLa cells, co-staining with LTR; format: cell-based, human; conditions: HeLa cells
Procedure: Then, AIE-LysoY was applied to lysosome imaging and its lysosome-targeting performance was assessed by fluorescence microscope. HeLa cells were stained with 10 μM of AIE-LysoY for 10 min, followed by washing away the abundant molecules of AIE-LysoY and incubation with 50 nM of LTR for 30 min. […] The fluorescence of AIE-LysoY overlaps perfectly with that of LTR, indicating the lysosome-targeting of AIE-LysoY.
Quantitative analysis of the degree of overlapping of these two fluorescence signals by Pearson's coefficient (Rr), which depicts the degree of linear dependence between two variables, gives an overlapping coefficient of 0.90. The high Rr value proves that AIE-LysoY is a lysosome-selective probe. […] Changing the staining time from 10 min to 60 min, the specificity to lysosome is retained, as well as the emission contrast.
To design the lysosome-specific bioprobe, a molecular engineering approach was employed. The precursor of AIE-LysoY, FAS-Br, and two morpholine-functionalized AIEgens, TPE-2Mor and Nred-mor were prepared and applied to cell imaging. The molecular structures of TPE-2mor and Nred-mor are shown below: […]

MCF-7 cells = assay: Lysosomal imaging in MCF-7 cells, co-staining with LTR; format: cell-based; conditions: MCF-7, 50 nm TMX 24 hrs, matched with LTR
Procedure: The behavior of TPE-TMX in cellular settings was studied as compared to TMX. MCF-7 cells were incubated with 2 μM TPE-TMX and […] TMX for 24 hrs, respectively. The cells were then washed and directly observed under the microscope without fixation. […] However, the exact intracellular location of TMX cannot be confirmed by fluorescent microscopy because its emission wavelength is not in the range of the visible spectrum. Therefore, a series of commercial fluorescent markers were used to image drug delivery of TMX. […] On the other hand, TPE-TMX, without any aid of fluorescent dye, can be successfully monitored in the cells thanks to its intense blue emission. The controls display no emission under UV irradiation.
To further confirm the subcellular distribution of TPE-TMX, LTR was also used to co-stain MCF-7 cells with TPE-TMX. […] As expected, TPE-TMX is a specific fluorescent dye to visualize lysosomal organelle structures as well as monitor the drug release.

c1coc(C(=C(c2ccco2)c2ccco2)c2ccco2)c1 [TFE, Tetrakis(2-furyl)ethene]
Ability to enter cells as bioprobe (HeLa cells [1]): Only TTE has revealed to be useful for this purpose

CCC[n+]1cc2ccc(N(c3ccccc3)c3ccccc3)cc2c(-c2ccccc2)c1-c1ccccc1 [DPA-IQ]
Emission of stained cells (HeLa cells [2]): strong emission
Emission of stained cells (HepG2 cells): strong emission
Cytotoxicity by MTT assay (HeLa cells [3]): low cytotoxicity
Emission of stained cells (PC-9 cells): strong emission
Mitochondrial staining compared with MitoTracker Red FM (mitochondria): can stain the mitochondrial organelle as good as the commercially available MitoTracker Red FM
Emission of stained cells (LX2 cells): faint emission

CN(C)c1ccc(/C=C(\C#N)c2ccc(-c3cc[n+](CCCCCCN4CCOCC4)cc3)cc2)cc1 [Nred-mor]
Intracellular localisation of control probes (lysosome): selectively accumulates in the mitochondria

CCC[n+]1cc2ccc(-c3ccc(N(c4ccccc4)c4ccccc4)cc3)cc2c(-c2ccccc2)c1-c1ccccc1 [TPA-IQ]
Cytotoxicity by MTT assay (HeLa cells [3]): low cytotoxicity
Mitochondrial staining compared with MitoTracker Red FM (mitochondria): can stain the mitochondrial organelle as well as the commercially available MitoTracker Red FM with higher resolution

CC/C(=C(\c1ccccc1)c1ccc(OCCN(C)C)cc1)c1ccccc1 [TMX, Tamoxifen, reference compound]
Subcellular distribution (MCF-7 cells): possible to be localized on the lysosomes

c1ccc(C(=C(c2ccccc2)c2ccc(CN3CCOCC3)cc2)c2ccc(CN3CCOCC3)cc2)cc1 [TPE-2Mor]
Intracellular localisation of control probes (lysosome): stains all the hydrophobic regions

c1cc2c3ccoc3c3c4occc4c4ccoc4c3c2o1 [fl-TFE, Tetrafuro[2,3-a:3′,2′-c:2″,3″-f:3″′,2″′-h]-naphthalene]
Ability to enter cells as bioprobe (HeLa cells [1]): Only TTE has revealed to be useful for this purpose

CCC[n+]1cc2ccc(-c3cccc4c(OC)cccc34)cc2c(-c2ccccc2)c1-c1ccccc1 [Naph-IQ]
Cytotoxicity by MTT assay (HeLa cells [3]): low cytotoxicity
Mitochondrial staining compared with MitoTracker Red FM (mitochondria): can stain the mitochondrial organelle as good as MitoTracker Red FM with higher resolution

Oc1cc(OCCCCCCBr)ccc1/C=N/N=C1c2ccccc2-c2ccccc21 [FAS-Br, (E)-2-(((9H-fluoren-9-ylidene)hydrazono)methyl)-5-((6-bromohexyl)oxy)phenol]
Intracellular localisation of control probes (lysosome): lights up intracellular lipid droplets and the recticulum structures of mitochondria in HeLa cells rather than lysosomes
